Test results from patent publication US6479466B1, “Compositions for treating viral infections, and methods therefor” (University of Maryland, priority 1999, dated 2002).
Where a name gives a salt, the structure may show the parent alone. Read-outs that look alike come from different tables or passages of the source. Each block holds one molecule with its values, some of them ahead of it.

Columns and labels:
[1] = system: PHA-stimulated PBMCs; experiment: MTT cell proliferation assay in PHA-stimulated PBMCs; format: cell-based, human; settings: human, 5 days, 100 μM
Experimental: The effect of RV and […] on PBMC proliferation at the concentrations shown to enhance the anti-HIV effect of ddI were examined. Cellular proliferation in culture in the presence or absence of drugs was measured by commercial MTT assay, according to the manufacturer's instructions (Boehringer Mannheim). Cell viability was determined by trypan blue staining.
Proliferation was measured on PHA-stimulated PBMCs cultured in the presence of IL-2, 2 μM ddI, and RV or HU. The MTT assay was performed on days 2 and 5 (FIG. 8), and days 2 and 7 (FIG. 20) after the addition of the drugs. […] On day 5, RV at 10 μM inhibited proliferation by 30%, whereas HU inhibited proliferation by 40 to 50%, depending on the donor.
Proliferating PBMCs were cultured in the presence of RV or HU for 5 days. On day 2 and 5 an MTT assay and a ^3H-thymidine incorporation assay were performed. The MTT is a […] assay that measures cellular metabolic activity and directly correlates to the number of cells in the culture. The ^3H-thymidine incorporation assay relies on the incorporation of the radioactive nucleoside ^3H-thymidine into newly synthesized DNA. […] These differences between the effects of RV and HU were even more striking in the MTT and ^3H-thymidine incorporation assays conducted on day 5 (FIG. 12 and FIG. 13, respectively).

[2] = system: HTLV-IIIB; experiment: p24 antigen production in PHA-activated PBMCs infected with HTLV-IIIB; format: cell-based, HIV-1; settings: for IC90: read-out: IC90 (concentration of nucleoside analog that reduced the p24 antigen value of the untreated control by 90%)
Description: The antiviral activities of RV alone and in combination with nucleoside analogs were investigated in PHA-stimulated PBMCs from seronegative donors. RV, ddC, ddI, and AZT were purchased from Sigma (St. Louis, Mo.). The HIV-1 T-cell line adapted isolate HTLV-IIIB was obtained from Dr. Gallo, at the National Institutes of Health AIDS Research and Reference Reagent Program (Catalog #398, Rockville, Md.). Primary strains of HIV-1 were isolated by coculturing 10^7 patient PBMC with an equal number of PHA-stimulated PBMC from a normal donor. Titration of stocks and MT-2 phenotype determination were carried out as described (ACTG Virology Manual, NIH Pub No. 94 3828, 1994). The SI phenotype was determined by assessing viral growth and syncytia formation in the MT-2 cell line obtained from Dr. Richman at the National Institutes of Health AIDS Research and Reference Reagent Program (Catalog #237, Rockville, Md.).
Primary PBMCs were separated from whole blood of HIV seronegative donors by density centrifugation over Ficoll-Hypaque (Sigma). The culture medium consisted of RPMI supplemented with 10% fetal bovine serum (FBS), 2 mM glutamine and penicillin/streptomycin (Gibco, Grand Island, N.Y.).
For infection studies involving PBMCs, cells were stimulated with 2.5 or 10 μg/ml phytohemagglutinin (PHA; Boehringer Mannheim, Indianapolis, Ind.) for 3 days. Stimulated PBMCs were infected by incubation with virus at a multiplicity of infection of 1000 TCID50/10^6 PBMC for 2 hours. PBMCs were then washed three times with PBS and cultured in 5% CO2 at 37° C., in RPMI/10% FBS supplemented with 10 units/ml IL-2 (Boehringer Mannheim) and drugs as appropriate. PBMCs were seeded in 96-well flat-bottom plates at a density of 2×10^5 PBMCs/200 μl. Following 3 days of culture half of the medium was replaced with fresh medium containing IL-2 and drugs. After 7 days of culture, HIV-1 p24 antigen production in the culture supernatant was assayed by ELISA (Coulter, Hialeah, Fla.). The concentration of nucleoside analog, alone and in combination with resveratrol, that reduced the p24 antigen value of the untreated control by 90% (IC90) was calculated by using nonparametric regression analysis. The analysis used the median-effect equation, Fa=1/[1+(Dm/D)]^m, where D is the dose, Fa is the fraction affected, and Dm is the dose required to produce the median effect.
Cells were infected with the T-cell tropic isolate HTLV-IIIB for 2 hours, and then cultured in varying concentrations of RV with or without nucleoside analogs. Virus replication was measured by p24 antigen production by ELISA using a standard commercial kit in the culture supernatants on days 7 and 10 after infection.
Activated PBMCs infected with HTLV-IIIB were cultured in the presence of ddI plus HU (100 μM) or RV (5 and 10 μM). […] Virus production in the presence of the different drug concentrations was evaluated on day 7 after infection.

[3] = system: PHA-activated PBMCs; experiment: 3H-thymidine incorporation (DNA synthesis) assay in proliferating PBMCs; format: cell-based, human; settings: HU 100 μM; day 2
Experimental: For example, a thymidine incorporation assay using PBMC's may be carried out as follows. PBMC's are suspended, then 0.1 ml (100,000) of cells are added to each designated well of a 96-well plate. The plates are placed into a 37° C., 5% CO2, 95% humid incubator for the predetermined incubation periods—normally 2 and 5 days. At the end of the incubation period, and at a standard time prior to harvesting the plate (6-18 hours), 1.0-1.5 μCi (20 μl of 50-75 mCi/ml in complete medium) of [^3H]-labeled methyl thymidine is added to each well of the assay. The plates are then incubated for the remaining 6-18 hours. At the end of the [^3H]-thymidine pulse, the plates are harvested onto filter paper using a semi-automated multi-well harvester. The filter paper containing bound DNA may be dried using either ethanol or by moderate microwave heating. The filter paper samples are counted in a scintillation counter using standard procedures.

[4] = system: mutations 65R, 74V, 184V, and 115F in the RT gene; settings: cited from earlier work
[5] = system: HTLV-IIIB; experiment: p24 antigen in infected resting T-lymphocytes exposed to drugs for 6 days before PHA activation; format: cell-based, HIV-1; settings: ddC 0.1 μM or AZT 4 μM in combination with RV
Experimental: The effect of RV and nucleoside analogues in infected resting T-lymphocytes was evaluated in the present example. Purified resting cells were used. Absence of activated lymphocytes in the preparation was determined by incubation of the cells in the presence of a monoclonal antibody directed against the low affinity IL-2 receptor CD25 (Pharmingen, San Diego, Calif.), and subsequent analysis by flow cytometry. […] Cells were infected with HTLV-IIIB at a multiplicity of infection of 10^4 TCID50/10^6 cells for 3 hours. A high multiplicity of infection (m.o.i.) was used because of a reported short half life of HIV-1 unintegrated DNA in infected resting lymphocytes. Infected cells were washed 3 times with PBS to remove virus excess and resuspended in 10% FBS RPMI medium supplemented with drugs. To ensure that any antiviral activity exerted by the drugs occurred during the resting state, drugs were removed six days after infection by washing with PBS 3 times, and cells were activated by culturing in the presence of PHA for 2 days. Cells were then cultured in IL-2 medium without drugs, and supernatants were monitored for the presence of p24 antigen. Cultures were maintained for 20 days.
Purified resting T-lymphocytes from a seronegative donor were infected with HTLV-IIIB at the high multiplicity of infection and cultured in the presence of 5 or 10 μM RV plus ddI (0, 0.25, 0.5 μM), ddC (0, 0.1 μM) or AZT (0, 4 μM) for 6 days. Concentrations used for ddC and AZT correspond to the highest, nontoxic concentration attainable in plasma of treated individuals. […] On day 6 after infection, drugs were washed away and cells were activated with PHA. The extent of viral replication was evaluated on day 6 (prior to PHA activation) and days 14 and 20 after infection. On day 6 very low amounts of p24 antigen could be detected under every condition tested, likely representing residual virus from the infecting inoculum. […] No toxicity was found by the MTT assay in uninfected culture controls treated with 5 μM RV and 0.5 μM ddI for 20 days under the same conditions.

Structure (SMILES): NC(=O)NO [HU, Hydroxyurea]
inhibition of proliferation [1]: 40 to 50%
reduction of virus production ([2]; HU 100 μM alone, day 7): approximately 20%
inhibition at 100 µM ([2]; Human immunodeficiency virus 1, IIIB, PBMC, 168 h, 100 μM HU combined with 0.5 μM ddI, day 7, read-out: inhibition of virus replication): > 99%
inhibition at 100 µM ([2]; Human immunodeficiency virus 1, IIIB, PBMC, 168 h, 100 μM HU in combination with 0.25 μM ddI, day 7, read-out: inhibition of HIV-1 replication): 91%
3H-thymidine incorporation (DNA synthesis) [3]: much lower than the untreated control

Structure (SMILES): Nc1nc(NC2CC2)c2ncn([C@H]3C=C[C@@H](CO)C3)c2n1 [abacavir, (1C, CiS)-4-(2-amino-6-(cyclopropylamino)—9H-purin-9-yL)-2-cyclopentene-1-methanol sulfate (salt) (2:1)]
resistance to the drug ([4]; mutants harboring 2 or 3 of these mutations): approximately 10 fold
decrease in susceptibility ([4]; single mutations 65R, 74V, 184V, and 115F): 2-3 fold

IC90 ([2]; Human immunodeficiency virus 1, IIIB, PBMC, 168 h, in combination with 5 μM RV, day 7): 15 nM
IC90 ([2]; Human immunodeficiency virus 1, IIIB, PBMC, 168 h, nucleoside analog alone, day 7): 25 nM
reduction of IC90 value ([2]; in combination with 5 μM RV): 1.6 fold
reduction of IC90 value ([2]; in the presence of 10 μM RV): 3.1 fold
Structure (SMILES): Cc1cn([C@H]2C[C@H](N=[N+]=[N-])[C@@H](CO)O2)c(=O)[nH]c1=O [AZT, 3′-azido-2′,3′-dideoxythymidine]
virus replication after PHA activation [5]: failed to suppress virus replication

reduction of IC90 value ([2]; in combination with 5 μM RV): 3.3 fold
IC90 ([2]; in combination with 5 μM RV, day 7): 80 nM
reduction of IC90 value ([2]; in the presence of 10 μM RV): 5.4 fold
IC90 ([2]; nucleoside analog alone, day 7): 270 nM
Structure (SMILES): Nc1ccn([C@H]2CC[C@@H](CO)O2)c(=O)n1 [ddC, 2′,3′-dideoxycytosine]
virus replication after PHA activation [5]: failed to suppress virus replication
